A short description of this test: Antagonist activity at CCR2 in human PBMCs assessed as inhibition of MCP1-induced chemotaxis.

Consider eight compounds from BindingDB's records for doi:10.1016/j.bmcl.2007.07.028 (Bristol-Myers Squibb, 2007).

Structures are written as SMILES. A value given as a limit tells only on which side of the number the result lay.

Usually IC50 stands for the concentration that inhibits the measured activity by half. For `CCNc1ccc(C(F)(F)F)cc1C(=O)NCC(=O)N[C@@H](CNCc1ccc(C)cc1C)C(=O)NC(C)(C)C` [(S)-N-(2-(3-(2,4-dimethylbenzylamino)-1-(tert-butylamino)-1-oxopropan-2-ylamino)-2-oxoethyl)-2-(ethylamino)-5-(trifluoromethyl)benzamide], the IC50 came to 100 nM.
Turning to `Cc1ccc(CNC[C@H](NC(=O)CNC(=O)c2cc(N)cc(C(F)(F)F)c2)C(=O)NC(C)(C)C)c(C)c1` [(S)-N-(2-(3-(2,4-dimethylbenzylamino)-1-(tert-butylamino)-1-oxopropan-2-ylamino)-2-oxoethyl)-3-amino-5-(trifluoromethyl)benzamide], the IC50 came to 720 nM.
With `Cc1ccc(CNC[C@H](NC(=O)CNC(=O)c2cc(C(F)(F)F)ccc2NCc2ccccc2)C(=O)NC(C)(C)C)c(C)c1` [(S)-N-(2-(3-(2,4-dimethylbenzylamino)-1-(tert-butylamino)-1-oxopropan-2-ylamino)-2-oxoethyl)-2-(benzylamino)-5-(trifluoromethyl)benzamide] the figure was 39 nM; with `Cc1ccc(CNC[C@H](NC(=O)CNC(=O)c2cc(C(F)(F)F)ccc2NC(=O)NC(C)C)C(=O)NC(C)(C)C)c(C)c1` [(S)-1-(2-((2-(3-(2,4-dimethylbenzylamino)-1-(tert-butylamino)-1-oxopropan-2-ylamino)-2-oxoethyl)carbamoyl)-4-(trifluoromethyl)phenyl)-3-isopropylurea], 240 nM; with `Cc1ccc(CNC[C@H](NC(=O)CNC(=O)c2cccc(C(F)(F)F)c2)C(N)=O)c(C)c1` [(S)-N-(2-(3-(2,4-dimethylbenzylamino)-1-amino-1-oxopropan-2-ylamino)-2-oxoethyl)-3-(trifluoromethyl)benzamide], above 1500 nM.
The same measure for `Cc1ccc(CNC[C@H](NC(=O)CNC(=O)c2cc(C(F)(F)F)ccc2N)C(=O)NC(C)(C)C)c(C)c1` [(S)-N-(2-(3-(2,4-dimethylbenzylamino)-1-(tert-butylamino)-1-oxopropan-2-ylamino)-2-oxoethyl)-2-amino-5-(trifluoromethyl)benzamide]: 260 nM.
Consider `CCNc1cc(C(=O)NCC(=O)N[C@@H](CNCc2ccc(C)cc2C)C(=O)NC(C)(C)C)cc(C(F)(F)F)c1` [(S)-N-(2-(3-(2,4-dimethylbenzylamino)-1-(tert-butylamino)-1-oxopropan-2-ylamino)-2-oxoethyl)-3-(ethylamino)-5-(trifluoromethyl)benzamide], for which the IC50 was 190 nM.
The same measure for `Cc1ccc(CNC[C@H](NC(=O)CNC(=O)c2cccc(C(F)(F)F)c2)C(=O)NC(C)(C)C)c(C)c1` [(S)-N-(2-(3-(2,4-dimethylbenzylamino)-1-(tert-butylamino)-1-oxopropan-2-ylamino)-2-oxoethyl)-3-(trifluoromethyl)benzamide]: above 3000 nM.
